Laboratory results as given in patent US7087628B2, “N-heterocyclyl hydrazides as neurotrophic agents” (Ortho-McNeil Pharmaceutical, Inc., priority 2001, dated 2006).

These molecules were tested on Primary Rat Hippocampal Cells (assay: Neurite outgrowth assay in primary rat hippocampal cells (MAP-2 immunofluorescence)). Settings: neurite outgrowth response reported as percent of DMSO-treated control; MAP-2 fluorescence; cells 7 days in culture.
Type: cell-based
Method: Hippocampal cells were dissected from the brains of embryonic day 18 rat pups and dissociated with trypsin (1 mg/mL) and trituration. Cells were seeded at 30,000 cells/well in 96-well plates filled with 100 μL MEM and 10% FBS. At 7 days in culture, cells were fixed with 4% paraformaldehyde and immuno-fluorescence was performed.
Cultures were incubated with normal horse serum (1:50; Vector Labs) for about 20 min, rinsed and then incubated with primary antibody, microtubule associated-protein 2 (anti-mouse MAP-2; 1:1000; Chemicon) for about 2 h at about RT. Following primary antibody, cultures were rinsed and incubated with fluorescein anti-mouse IgG (rat absorbed; 1:50; Vector Labs) for about 1 h. After fluorescein incubation, the cultures were rinsed and read in PBS on a fluorescent plate reader (excitation: 485 nm; emission: 530 nm). A compound was regarded as active if the neurite outgrowth response was greater than the mean DMSO-treated control response on the same plate. The response to test compound was reported as percent of DMSO-treated control. The signal-to-noise separation was consistent: the fluorescence from DMSO control wells is at least two-fold greater than blank wells.

Going from `CCC(C)(C)C(=O)C(=O)N1CCCC1C(=O)NNc1ccc2ccccc2n1` (stereo not shown) [(2)] to `CCC(C)(C)C(=O)C(=O)N1CCCC1C(=O)NNc1ccccn1` (stereo not shown) [Compound (1), 1-(3,3-Dimethyl-2-oxo-pentanoyl)-pyrrolidine-2-carboxylic acid N′-pyridine-2-yl-hydrazide], the “Rat Hippocampal Cell Response” value rises from 107 to 157.

`CCC(C)(C)C(=O)C(=O)N1CCCC1C(=O)NNc1ccncc1Br` (stereo not shown) [(3)] and `CCC(C)(C)C(=O)C(=O)N1CCCC1C(=O)NNc1ncc(C(F)(F)F)cc1Cl` (stereo not shown) [(8)] are the same in “Rat Hippocampal Cell Response” value: 106 for the first, 106 for the second.

First: CCC(C)(C)C(=O)C(=O)N1CCCC1C(=O)NNc1cc(C)c2c(C)nn(C)c2n1 (stereo not shown) [(4)]
Second: Cc1cc(C(F)(F)F)cc(NNC(=O)C2CCCCN2C(=O)C(=O)c2cccs2)n1 (stereo not shown) [Compound (9), 1-(2-Oxo-2-thiophen-2-yl-acetyl)piperidine-2-carboxylic acid N′-(6-methyl-4-trifluoromethyl-pyridin-2-yl)-hydrazide]
The “Rat Hippocampal Cell Response” value of the first is lower: 105 for the first, 118 for the second.

`O=C(NNc1ccccn1)[C@@H]1CCN1S(=O)(=O)Cc1ccccc1` [Compound (10), 2-Azetidinecarboxylic acid, 1-[(phenylmethyl)sulfonyl]-, 2-(2-pyridinyl)hydrazide, (2S)-] was tested, and the “Rat Hippocampal Cell Response” value was 115.

With `CCC(C)(C)C(=O)C(=O)N1CCCC1C(=O)NNc1c([N+](=O)[O-])c(C)nn1C` (stereo not shown) [(5)] the “Rat Hippocampal Cell Response” value was <100.
For `CCC(C)(C)C(=O)C(=O)N1CCCC1C(=O)NNc1cc(C(F)(F)F)cc(C)n1` (stereo not shown) [(6)], the “Rat Hippocampal Cell Response” value was <100.
In the case of `CCC(C)(C)C(=O)C(=O)N1CCCC1C(=O)NN(C)c1cc(C(F)(F)F)cc(C)n1` (stereo not shown) [(7)], the “Rat Hippocampal Cell Response” value is reported as <100.
